From ChEMBL document CHEMBL1148824, “Quinazolinone derivatives as orally available ghrelin receptor antagonists for the treatment of diabetes and obesity” (J Med Chem, 2007)
pKi: −log10 of the molar value.

What was measured:
[1] = Bioavailability in Wistar rat plasma at 3 mg/kg, po; assay type: ADME, organism-based
[2] = Bioavailability in Wistar rat plasma at 1 mg/kg, iv; assay type: ADME, organism-based
[3] = Cmax in Wistar rat at 10 mg/kg, po; assay type: ADME, organism-based; design: dose 10 mg/kg, route oral; conditions: in vivo
[4] = target: Ghrelin receptor (Ovis aries, UniProt Q8MHZ5); assay: Displacement of [125I]ghrelin from ovine recombinant GHSR1a expressed in HEK293F cells after 6 hrs by scintillation proximity assay; assay type: cell-based
Sequence of Ghrelin receptor (Q8MHZ5 whole entry): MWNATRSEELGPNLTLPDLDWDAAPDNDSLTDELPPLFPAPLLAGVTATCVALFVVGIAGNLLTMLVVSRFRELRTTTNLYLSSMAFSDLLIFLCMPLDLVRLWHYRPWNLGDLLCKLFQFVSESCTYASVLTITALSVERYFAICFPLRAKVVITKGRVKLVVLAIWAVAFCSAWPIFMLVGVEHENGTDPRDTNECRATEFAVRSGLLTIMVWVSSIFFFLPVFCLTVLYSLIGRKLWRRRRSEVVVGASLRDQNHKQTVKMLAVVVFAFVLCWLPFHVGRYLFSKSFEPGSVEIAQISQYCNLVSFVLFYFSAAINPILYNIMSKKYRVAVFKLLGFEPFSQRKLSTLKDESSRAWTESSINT

SMILES | bioavailability [1] [%] | bioavailability [2] [%] | Cmax [3] [nM] | pKi [4]
CCN1CCCC(Cn2c(-c3ccccc3C)nc3ccc(-c4ccc(Cl)cc4)cc3c2=O)C1.Cl (centres undefined) | 29 | 29 |  | 
CCCCN(C)c1ccc2nc(-c3ccccc3OC)n(CC3CCCN(CC)C3)c(=O)c2c1 (centres undefined) |  |  | < 20 | 7.70
